Converted amounts (≈) assume the structure as drawn. Structures can show the parent of a compound that is named as a salt.
Key:
A431 cancer cell = experiment: Inhibition of cancer cell growth (sulforhodamine B); assay type: cell-based; conditions: for GI50: Homo sapiens, A-431, 48 h; for GI50 / A431 GI50: A431 cells, grown 2 days with compound, SRB staining; for inhibitory effect of cancer cell growth compared with standard material DP153035: A431, comparison drawn from Table 3
Experimental: A431 cancer cell was cultivated at 37° C. under an environment of 5% (v/v) CO2 employing RPMI 1640 medium containing 10% (v/v) fetal calf serum. […] The above cells was grown again for 2 days, and then, fixed with formalin solution (Sigma Chem. Co., U.S.A.) and washed with water. After that, the cells was dried in the atmosphere, stained with 0.1% (v/v) sulforhodamine B solution (Sigma Chem. Co., U.S.A.) for 30 min and wash with 1% (v/v) acetic acid aqueous solution. Then, dye attached to cells was extracted with 0.1M Tris-HCl (pH 8.0) and the absorbances of the remaining culture were measured at 520 nm by the aid of microplate reader. And then, the concentration of the compound by which cell growth is 50% inhibited was represented as GI50(s: Table 3).

[1] = background statement; cited from earlier work
[2] = Measurement of the solubility of compounds in water (HPLC calibration curve); assay type: physicochemical; conditions: supersaturated in 1 ml of water, centrifuged, supernatant by HPLC; for solubility thermodynamic: read-out: Solubility (mg/10 ml of water)
Experimental: That is, 1 mg of each of the above compounds was completely dissolved in 1 ml of DMSO, which was then subjected to HPLC employing C18 resin, and the peak area of chromatogram was calculated. And then, 1 mg of each of the same compound was dissolved in 10 ml of DMSO, which was then subjected to the same HPLC as the above to obtain a chromatogram, and the peak area was calculated therefrom. A solubility calibration curve was prepared by employing the above two data, and a linear function was deduced from that to complete a calibration curve (X axis: area, Y axis: logarithm value of concentration).
Each of the same compounds was supersaturated in 1 ml of water, which was then centrifuged at 14,000 rpm for 1 min. The precipitate was separated from the supernatant which was then subjected to the same HPLC as the above to obtain a chromatogram, and the peak area was calculated therefrom. The obtained value was substituted to the above calibration curve to measure the solubility by mg/10 ml of water (see: Table 1).

[3] = target: T1, purified human EGFR kinase (Homo sapiens, UniProt P00533); experiment: Inhibition of EGFR tyrosine kinase (P32-ATP, biotin-conjugated substrate); assay type: biochemical; conditions: for IC50: purified human EGFR kinase, 50 μM ATP, 30° C., 10 min
T1 construct: purchased Promega
Experimental: The test was accomplished in a 20 μl reaction volume using 0.1 unit per reaction of purified human EGFR kinase (Promega, U.S.A.) and 50 μM biotin-conjugated substrate for tyrosine kinase (Promega, U.S.A.) and, 50 μM P^32-γ-ATP (0.2 μCi) and 20 mM Tris-HCl (pH 7.5) were employed as an ATP and a reaction solution, respectively. The test was carried out at 30° C. for 10 min, and terminated by the addition of 10 μl of 30% phosphate solution. The half of the reaction product was spotted onto avidin-layered PVDF membrane, which was then washed with 20 mM Tris-HCl (pH 8.0) and 0.2N NaCl aqueous solution for more than 2 hours.

T1 sequence (P00533 25-1210): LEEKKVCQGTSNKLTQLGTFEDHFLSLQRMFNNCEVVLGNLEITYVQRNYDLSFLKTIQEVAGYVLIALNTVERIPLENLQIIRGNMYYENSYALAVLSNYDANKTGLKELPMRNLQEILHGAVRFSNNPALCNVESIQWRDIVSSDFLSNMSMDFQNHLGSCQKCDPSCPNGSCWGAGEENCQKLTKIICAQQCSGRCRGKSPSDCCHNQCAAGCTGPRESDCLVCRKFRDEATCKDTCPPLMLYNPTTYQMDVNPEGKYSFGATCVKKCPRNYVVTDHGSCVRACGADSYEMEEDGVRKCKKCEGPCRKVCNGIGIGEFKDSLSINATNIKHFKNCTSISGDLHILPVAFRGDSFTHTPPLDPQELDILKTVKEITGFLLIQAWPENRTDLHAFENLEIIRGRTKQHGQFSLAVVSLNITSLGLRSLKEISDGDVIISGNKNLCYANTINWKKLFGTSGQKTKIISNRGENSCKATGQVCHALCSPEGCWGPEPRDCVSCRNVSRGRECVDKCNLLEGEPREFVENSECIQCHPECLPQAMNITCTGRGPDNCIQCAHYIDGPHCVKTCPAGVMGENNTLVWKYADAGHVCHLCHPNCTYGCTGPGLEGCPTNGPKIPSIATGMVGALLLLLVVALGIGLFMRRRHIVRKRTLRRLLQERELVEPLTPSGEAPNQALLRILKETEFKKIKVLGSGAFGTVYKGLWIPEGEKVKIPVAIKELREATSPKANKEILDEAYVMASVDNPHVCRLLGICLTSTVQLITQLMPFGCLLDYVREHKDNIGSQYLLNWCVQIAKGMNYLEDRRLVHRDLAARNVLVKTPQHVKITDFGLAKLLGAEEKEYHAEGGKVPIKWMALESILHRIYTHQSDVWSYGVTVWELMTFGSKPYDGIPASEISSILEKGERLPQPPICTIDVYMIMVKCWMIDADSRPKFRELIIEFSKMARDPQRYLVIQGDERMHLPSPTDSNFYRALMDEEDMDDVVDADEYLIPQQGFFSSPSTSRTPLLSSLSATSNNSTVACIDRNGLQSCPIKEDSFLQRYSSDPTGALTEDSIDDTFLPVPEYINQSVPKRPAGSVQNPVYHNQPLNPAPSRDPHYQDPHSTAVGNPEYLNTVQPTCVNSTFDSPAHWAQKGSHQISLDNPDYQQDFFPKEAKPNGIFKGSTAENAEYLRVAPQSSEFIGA

Row | Compound | GI50 (A431 cancer cell) [µg/mL] | inhibitory effect of cancer cell growth compared with standard material DP153035 (A431 cancer cell) | IC50 [3] [nM] | further results
1 | COc1cc2ncnc(Nc3cccc(Br)c3)c2cc1OC [DP153035, reference compound] | 0.99 (≈ 2.75 µM) |  |  | solubility in water (in words) [1]: insolubility in water; solubility thermodynamic [2]: 20 µg/mL (≈ 55.5 µM)
2 | COCC1COc2cc3ncnc(Nc4cccc(Br)c4)c3cc2O1 (centres unmarked) [Example 10, (3-bromophenyl)-(7-methoxymethyl-[1,4]-dioxano[2,3-g]quinazolin-4-yl)-amine] | 0.24 (≈ 0.597 µM) | better inhibitory effect of cancer cell growth than the standard material | 35.5 | solubility thermodynamic [2]: 241 µg/mL (≈ 599 µM)
3 | COCC1COc2cc3ncnc(Nc4cccc(C(F)(F)F)c4)c3cc2O1 (centres unmarked) [Example 12, (3-trifluoromethylphenyl)-(7-methoxymethyl-[1,4]-dioxano[2,3-g]quinazolin-4-yl)-amine] | 0.43 (≈ 1.1 µM) | better inhibitory effect of cancer cell growth than the standard material | > 256 | solubility thermodynamic [2]: 74 µg/mL (≈ 189 µM)
4 | COCC1COc2cc3ncnc(Nc4cc(Cl)cc(Cl)c4)c3cc2O1 (centres unmarked) [Example 13, (3,5-dichlorophenyl)-(7-methoxymethyl-[1,4]-dioxano[2,3-g]quinazolin-4-yl)-amine] | 0.21 (≈ 0.535 µM) | better inhibitory effect of cancer cell growth than the standard material | 34.7 | solubility thermodynamic [2]: 8 µg/mL (≈ 20.4 µM)
5 | COCC1COc2cc3ncnc(Nc4cc(C)cc(C)c4)c3cc2O1 (centres unmarked) [Example 15, (3,5-dimethylphenyl)-(7-methoxymethyl-[1,4]-dioxano[2,3-g]quinazolin-4-yl)-amine] | 0.06 (≈ 0.171 µM) | better inhibitory effect of cancer cell growth than the standard material | > 285 | 
6 | COCC1COc2cc3ncnc(Nc4ccc(C)c(Cl)c4)c3cc2O1 (centres unmarked) [Example 16, (3-chloro-4-methylphenyl)-(7-methoxymethyl-[1,4]-dioxano[2,3-g]quinazolin-4-yl)-amine] |  |  |  | solubility thermodynamic [2]: 457 µg/mL (≈ 1230 µM)
7 | COCC1COc2cc3ncnc(Nc4ccc(F)c(Cl)c4)c3cc2O1 (centres unmarked) [Example 17, (3-chloro-4-fluorophenyl)-(7-methoxymethyl-[1,4]-dioxano[2,3-g]quinazolin-4-yl)-amine] | 0.6 (≈ 1.6 µM) | better inhibitory effect of cancer cell growth than the standard material | 97.7 | 
8 | COCC1COc2cc3ncnc(Nc4cc(F)c(F)c(F)c4)c3cc2O1 (centres unmarked) [Example 18, (3,4,5-trifluorophenyl)-(7-methoxymethyl-[1,4]-ioxano[2,3-g]quinazolin-4-yl)-amine] | 1.98 (≈ 5.25 µM) |  | 4.19 | inhibitory effect on EGFR tyrosine kinase compared with standard material DP153035 ([3]; comparison drawn from Table 2): higher inhibitory effect than the standard material; solubility thermodynamic [2]: 45 µg/mL (≈ 119 µM)
9 | Ic1cccc(Nc2ncnc3cc4c(cc23)OC(CN2CCOCC2)CO4)c1 (centres unmarked) [Example 22, (3-iodophenyl)-[7-(morpholine-4-ylmethyl)-[1,4]dioxano[2,3-g]quinazolin-4-yl]-amine] | 0.38 (≈ 0.753 µM) | better inhibitory effect of cancer cell growth than the standard material | 25.1 | 
10 | Brc1cccc(Nc2ncnc3cc4c(cc23)OC(CN2CCOCC2)CO4)c1 (centres unmarked) [Example 23, (3-bromophenyl)-[7-(morpholine-4-ylmethyl)-[1,4]dioxano[2,3-g]quinazolin-4-yl]-amine] | 0.13 (≈ 0.284 µM) |  | 63.1 | 
11 | OCCN(CCO)CC1COc2cc3ncnc(Nc4cccc(Br)c4)c3cc2O1 (centres unmarked) [Example 25] | 0.61 (≈ 1.28 µM) |  | 100 | 
12 | OCCNCC1COc2cc3ncnc(Nc4cccc(Br)c4)c3cc2O1 (centres unmarked) [Example 27, 2-[4-(3-bromophenylamine)-[1,4]dioxano[2,3-g]quinazolin-7-ylmethyl]amino-ethanol] |  |  | 28.2 | A431 GI50 (A431 cancer cell): 0.22 µg/mL
13 | CN1CCN(CC2COc3cc4ncnc(Nc5cccc(Br)c5)c4cc3O2)CC1 (centres unmarked) [Example 28, (3-bromophenyl)-[7-(4-methylpiperazin-1-yl)methyl-[1,4]dioxano[2,3-g]quinazolin-4-yl]amine] | 0.22 (≈ 0.468 µM) | better inhibitory effect of cancer cell growth than the standard material | 8.91 | 
14 | CC(C)[C@H](CO)NCC1COc2cc3ncnc(Nc4cccc(Br)c4)c3cc2O1 (some centres unmarked) [Example 29] | 1.9 (≈ 4.01 µM) |  | > 211 | 
15 | Cl.Ic1cccc(Nc2ncnc3cc4c(cc23)OCC(CN2CCOCC2)O4)c1 (centres unmarked) [Example 30] |  |  |  | Solubility (mg/10 ml of water) [2]: >>1,000 mg/10 ml of water
16 | Brc1cccc(Nc2ncnc3cc4c(cc23)OC(CN2CCOCC2)CO4)c1 (centres unmarked) [Example 31, (3-bromophenyl)-[7-(morpholin-4-ylmethyl)-[1,4]dioxano[2,3-g]quinazolin-4-yl]amine hydrochloride] |  | better inhibitory effect of cancer cell growth than the standard material | 101 | A431 GI50 (A431 cancer cell; hydrochloride): 0.19 µg/mL; Solubility (mg/10 ml of water) [2]: >>1,000 mg/10 ml of water
17 | OCCN(CCO)CC1COc2cc3ncnc(Nc4cccc(Br)c4)c3cc2O1 (centres unmarked) [Example 33, N-[4-(3-bromophenylamine)-[1,4]dioxano[2,3-g]quinazolin-7-ylmethyl]-N-(2-hydroxyethyl)]-2-ethanolamine hydrochloride] |  | better inhibitory effect of cancer cell growth than the standard material | 44.9 | A431 GI50 (A431 cancer cell; hydrochloride): 0.67 µg/mL; Solubility (mg/10 ml of water) [2]: >>1,000 mg/10 ml of water
18 | Cl.OCCNCC1COc2cc3ncnc(Nc4cccc(I)c4)c3cc2O1 (centres unmarked) [Example 34, 2-[4-(3-iodophenylamine)-[1,4]dioxano[2,3-g]quinazolin-7-ylmethyl]amino ethanol hydrochloride] |  |  |  | Solubility (mg/10 ml of water) [2]: >>1,000 mg/10 ml of water
19 | OCCNCC1COc2cc3ncnc(Nc4cccc(Br)c4)c3cc2O1 (centres unmarked) [Example 35, 2-[4-(3-bromophenylamine)-[1,4]dioxano[2,3-g]quinazolin-7-ylmethyl]amino ethanol hydrochloride] |  | better inhibitory effect of cancer cell growth than the standard material | 49.9 | A431 GI50 (A431 cancer cell; hydrochloride): 0.95 µg/mL; Solubility (mg/10 ml of water) [2]: >>1,000 mg/10 ml of water
20 | CN1CCN(CC2COc3cc4ncnc(Nc5cccc(I)c5)c4cc3O2)CC1.Cl (centres unmarked) [Example 36, (3-iodophenyl)-[7-(4-methylpiperazin-1-yl)methyl-[1,4]dioxano[2,3-g]quinazolin-4-yl]amine hydrochloride] |  |  |  | Solubility (mg/10 ml of water) [2]: >>1,000 mg/10 ml of water
21 | CN1CCN(CC2COc3cc4ncnc(Nc5cccc(Br)c5)c4cc3O2)CC1 (centres unmarked) [Example 37, (3-bromophenyl)-[7-(4-methylpiperazin-1-yl)methyl-[1,4]dioxano[2,3-g]quinazolin-4-yl]amine hydrochloride] |  |  | 123 | A431 GI50 (A431 cancer cell; hydrochloride): 0.38 µg/mL
22 | COC[C@H]1Oc2cc3ncnc(Nc4cccc(Br)c4)c3cc2O[C@@H]1COC [Example 44, (7,8-bismethoxymethyl[1,4]dioxano[2,3-g]quinazolin-4-yl)-(3-bromophenyl)-amine] | 2.91 (≈ 6.52 µM) |  | 74.1 | 
23 | COC[C@H]1Oc2cc3ncnc(Nc4cccc(I)c4)c3cc2O[C@@H]1COC [Example 45, (7,8-bismethoxymethyl[1,4]dioxano[2,3-g]quinazolin-4-yl)-(3-iodophenyl)amine] | 1.59 (≈ 3.22 µM) |  |  | 
24 | COC[C@H]1Oc2cc3ncnc(Nc4cccc(Cl)c4)c3cc2O[C@@H]1COC [Example 46, (7,8-bismethoxymethyl[1,4]dioxano[2,3-g]quinazolin-4-yl)-(3-chlorophenyl)-amine] | 2.37 (≈ 5.9 µM) |  | > 249 | 
25 | C#Cc1cccc(Nc2ncnc3cc4c(cc23)O[C@H](COC)[C@@H](COC)O4)c1 [Example 48, (7,8-bismethoxymethyl[1,4]dioxano[2,3-g]quinazolin-4-yl)-[3-(ethynyl)phenyl]-amine] | 1.89 (≈ 4.83 µM) |  | > 255 | 
26 | COc1cc2ncnc(Nc3ccc(F)c(Cl)c3)c2cc1OCCCN1CCOCC1 [ZD 1839] |  |  |  | solubility in water (in words) [1]: does not have a high solubility

From patent US6835735B2, “4-(phenylamino)-[1,4]dioxano[2,3-g]quinazoline derivatives and process for preparing the same” (Korea Institute of Science and Technology, priority 2001, dated 2004)
